What was measured:
[1] = target: Tyrosine-protein kinase Lyn (Homo sapiens) (UniProt P07948); assay: Inhibition of human LYN B at 18.6 nM by HotSpot assay relative to control
[2] = target: T1, Serine/threonine-protein kinase Nek9 (Homo sapiens) (UniProt Q8TD19); assay: Inhibition of human NEK9 at 18.6 nM by HotSpot assay relative to control
T1 sequence (whole entry): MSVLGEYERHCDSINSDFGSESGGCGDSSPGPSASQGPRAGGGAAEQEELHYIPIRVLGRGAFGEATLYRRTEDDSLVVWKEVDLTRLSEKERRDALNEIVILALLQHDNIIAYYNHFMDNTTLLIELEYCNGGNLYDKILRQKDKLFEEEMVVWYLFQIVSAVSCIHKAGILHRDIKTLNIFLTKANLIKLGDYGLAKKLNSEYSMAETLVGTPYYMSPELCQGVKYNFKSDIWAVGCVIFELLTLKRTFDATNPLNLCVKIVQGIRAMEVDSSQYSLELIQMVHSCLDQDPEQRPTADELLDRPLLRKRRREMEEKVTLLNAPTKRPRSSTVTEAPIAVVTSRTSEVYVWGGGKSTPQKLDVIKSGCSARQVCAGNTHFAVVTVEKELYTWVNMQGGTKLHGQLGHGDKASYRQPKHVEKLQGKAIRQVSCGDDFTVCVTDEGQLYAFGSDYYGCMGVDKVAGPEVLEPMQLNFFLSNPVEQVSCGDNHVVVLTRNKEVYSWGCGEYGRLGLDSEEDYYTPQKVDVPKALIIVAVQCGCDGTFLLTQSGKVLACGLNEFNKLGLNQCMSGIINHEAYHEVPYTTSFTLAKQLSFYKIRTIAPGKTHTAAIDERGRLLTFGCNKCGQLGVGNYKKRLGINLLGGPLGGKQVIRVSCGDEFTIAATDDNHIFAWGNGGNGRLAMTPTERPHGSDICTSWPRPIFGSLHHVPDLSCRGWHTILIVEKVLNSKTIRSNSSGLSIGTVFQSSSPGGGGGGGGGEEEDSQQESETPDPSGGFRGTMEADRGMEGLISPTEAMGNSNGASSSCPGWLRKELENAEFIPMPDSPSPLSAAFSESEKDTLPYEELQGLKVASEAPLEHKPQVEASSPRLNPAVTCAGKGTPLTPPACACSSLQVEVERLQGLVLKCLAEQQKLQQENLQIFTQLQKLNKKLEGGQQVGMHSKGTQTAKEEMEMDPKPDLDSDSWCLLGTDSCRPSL

[3] = target: Vascular endothelial growth factor receptor 1 (Homo sapiens) (UniProt P17948); assay: Inhibition of human FLT1 at 18.6 nM by HotSpot assay relative to control
[4] = target: Serine/threonine-protein kinase WNK2 (Homo sapiens) (UniProt Q9Y3S1); assay: Inhibition of human WNK2 at 18.6 nM by HotSpot assay relative to control
[5] = target: Myosin light chain kinase, smooth muscle (Homo sapiens) (UniProt Q15746); assay: Inhibition of human MYLK at 18.6 nM by HotSpot assay relative to control
[6] = target: T2, cGMP-dependent protein kinase 1 (Homo sapiens) (UniProt Q13976); assay: Inhibition of human PKG1b at 1.82 nM by HotSpot assay relative to control
T2 sequence (whole entry): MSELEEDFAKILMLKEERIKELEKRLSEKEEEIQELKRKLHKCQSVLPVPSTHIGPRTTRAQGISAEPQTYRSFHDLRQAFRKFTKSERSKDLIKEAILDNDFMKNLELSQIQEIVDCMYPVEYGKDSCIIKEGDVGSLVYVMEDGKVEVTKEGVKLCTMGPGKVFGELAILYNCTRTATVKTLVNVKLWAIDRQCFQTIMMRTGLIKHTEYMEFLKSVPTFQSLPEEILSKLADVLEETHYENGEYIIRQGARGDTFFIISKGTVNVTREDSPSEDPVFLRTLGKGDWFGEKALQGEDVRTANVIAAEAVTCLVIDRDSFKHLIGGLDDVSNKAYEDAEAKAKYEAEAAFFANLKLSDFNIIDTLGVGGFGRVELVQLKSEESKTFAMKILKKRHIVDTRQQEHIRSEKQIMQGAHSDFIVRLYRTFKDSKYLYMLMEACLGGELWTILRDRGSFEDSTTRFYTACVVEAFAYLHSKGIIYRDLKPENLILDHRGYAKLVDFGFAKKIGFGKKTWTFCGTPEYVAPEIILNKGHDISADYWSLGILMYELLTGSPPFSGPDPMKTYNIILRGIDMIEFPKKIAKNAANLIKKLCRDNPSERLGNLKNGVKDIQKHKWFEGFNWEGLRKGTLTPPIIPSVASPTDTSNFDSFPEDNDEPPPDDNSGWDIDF

[7] = target: T3, Serine/threonine-protein kinase TAO3 (Homo sapiens) (UniProt Q9H2K8); assay: Inhibition of human JIK at 1.82 nM by HotSpot assay relative to control
T3 sequence (whole entry): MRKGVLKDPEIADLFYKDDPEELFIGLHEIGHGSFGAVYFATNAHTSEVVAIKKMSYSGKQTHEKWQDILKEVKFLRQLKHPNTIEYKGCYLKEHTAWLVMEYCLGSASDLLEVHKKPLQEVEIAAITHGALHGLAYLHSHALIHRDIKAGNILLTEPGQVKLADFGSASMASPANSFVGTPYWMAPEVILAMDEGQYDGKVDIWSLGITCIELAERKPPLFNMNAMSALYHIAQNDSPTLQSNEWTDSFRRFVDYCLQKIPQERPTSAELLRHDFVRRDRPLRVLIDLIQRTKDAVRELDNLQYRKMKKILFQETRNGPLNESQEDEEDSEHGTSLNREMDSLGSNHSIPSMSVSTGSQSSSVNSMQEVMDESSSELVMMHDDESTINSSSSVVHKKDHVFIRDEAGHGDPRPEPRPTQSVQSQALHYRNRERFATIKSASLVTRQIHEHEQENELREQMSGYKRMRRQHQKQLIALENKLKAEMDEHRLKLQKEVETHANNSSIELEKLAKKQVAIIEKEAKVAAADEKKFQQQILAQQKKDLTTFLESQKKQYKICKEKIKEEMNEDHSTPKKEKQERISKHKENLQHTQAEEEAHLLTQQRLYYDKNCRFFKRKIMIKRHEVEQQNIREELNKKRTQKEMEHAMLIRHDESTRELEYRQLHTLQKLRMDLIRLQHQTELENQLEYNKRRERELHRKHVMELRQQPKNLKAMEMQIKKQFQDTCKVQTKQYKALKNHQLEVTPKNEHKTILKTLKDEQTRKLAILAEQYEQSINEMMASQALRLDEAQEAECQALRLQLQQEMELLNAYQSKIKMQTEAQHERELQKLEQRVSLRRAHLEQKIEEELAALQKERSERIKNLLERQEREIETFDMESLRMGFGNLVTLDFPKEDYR

[8] = target: Dual specificity mitogen-activated protein kinase kinase 1 (Homo sapiens) (UniProt Q02750); assay: Inhibition of human MEK1 at 1.82 nM by HotSpot assay relative to control
[9] = target: Vascular endothelial growth factor receptor 3 (Homo sapiens) (UniProt P35916); assay: Inhibition of human FLT4 at 1.82 nM by HotSpot assay relative to control
Sequence of Vascular endothelial growth factor receptor 3 (Homo sapiens) (P35916 whole entry): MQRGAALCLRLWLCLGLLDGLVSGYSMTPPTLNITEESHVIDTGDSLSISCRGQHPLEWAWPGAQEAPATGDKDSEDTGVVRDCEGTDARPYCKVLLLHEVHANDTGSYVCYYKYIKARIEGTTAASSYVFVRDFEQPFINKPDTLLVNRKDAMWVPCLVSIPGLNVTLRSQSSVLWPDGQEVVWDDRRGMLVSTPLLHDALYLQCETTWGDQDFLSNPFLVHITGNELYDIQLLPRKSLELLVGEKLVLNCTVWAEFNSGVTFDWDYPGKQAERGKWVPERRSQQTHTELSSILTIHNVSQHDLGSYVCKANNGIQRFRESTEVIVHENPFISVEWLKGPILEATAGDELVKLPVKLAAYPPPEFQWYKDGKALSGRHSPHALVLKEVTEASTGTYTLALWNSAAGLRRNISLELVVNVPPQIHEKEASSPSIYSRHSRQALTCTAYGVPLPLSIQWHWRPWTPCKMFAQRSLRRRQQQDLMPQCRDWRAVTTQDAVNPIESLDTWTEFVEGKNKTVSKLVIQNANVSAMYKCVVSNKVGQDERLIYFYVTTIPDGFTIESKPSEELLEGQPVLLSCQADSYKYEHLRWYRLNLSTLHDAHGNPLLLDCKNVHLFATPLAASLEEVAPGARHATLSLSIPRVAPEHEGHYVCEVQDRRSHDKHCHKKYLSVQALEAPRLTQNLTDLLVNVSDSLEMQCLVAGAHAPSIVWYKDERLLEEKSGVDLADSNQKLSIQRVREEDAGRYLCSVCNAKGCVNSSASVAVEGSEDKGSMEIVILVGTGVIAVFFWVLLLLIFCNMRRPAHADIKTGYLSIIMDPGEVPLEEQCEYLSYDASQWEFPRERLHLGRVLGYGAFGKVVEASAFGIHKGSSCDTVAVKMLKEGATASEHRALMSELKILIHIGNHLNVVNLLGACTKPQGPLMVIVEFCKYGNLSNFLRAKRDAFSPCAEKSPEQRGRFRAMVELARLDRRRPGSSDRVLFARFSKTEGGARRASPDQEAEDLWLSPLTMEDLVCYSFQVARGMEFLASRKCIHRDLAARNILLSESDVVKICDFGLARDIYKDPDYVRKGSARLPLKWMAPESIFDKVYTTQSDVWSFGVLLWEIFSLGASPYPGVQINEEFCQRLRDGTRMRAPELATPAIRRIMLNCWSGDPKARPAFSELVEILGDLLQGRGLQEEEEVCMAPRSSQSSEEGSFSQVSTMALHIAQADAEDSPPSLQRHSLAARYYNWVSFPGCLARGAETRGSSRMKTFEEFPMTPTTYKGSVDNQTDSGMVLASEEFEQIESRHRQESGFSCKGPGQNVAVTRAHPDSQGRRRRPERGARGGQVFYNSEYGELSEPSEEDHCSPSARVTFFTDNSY

Sequence of Tyrosine-protein kinase Lyn (Homo sapiens) (P07948 2-512 limits assumed): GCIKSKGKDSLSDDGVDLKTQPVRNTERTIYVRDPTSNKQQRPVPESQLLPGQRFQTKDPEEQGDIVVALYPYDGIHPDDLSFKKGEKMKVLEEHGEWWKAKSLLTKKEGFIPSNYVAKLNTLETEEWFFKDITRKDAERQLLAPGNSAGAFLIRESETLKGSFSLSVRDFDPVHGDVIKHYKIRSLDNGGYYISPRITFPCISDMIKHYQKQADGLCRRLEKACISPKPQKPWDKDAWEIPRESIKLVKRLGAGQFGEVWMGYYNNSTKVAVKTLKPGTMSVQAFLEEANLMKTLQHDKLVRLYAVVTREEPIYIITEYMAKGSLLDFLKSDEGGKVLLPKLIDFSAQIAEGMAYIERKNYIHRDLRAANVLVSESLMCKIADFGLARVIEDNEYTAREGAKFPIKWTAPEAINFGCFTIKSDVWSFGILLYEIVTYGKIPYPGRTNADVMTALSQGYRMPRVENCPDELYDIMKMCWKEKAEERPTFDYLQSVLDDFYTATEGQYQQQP
Sequence of Vascular endothelial growth factor receptor 1 (Homo sapiens) (P17948 whole entry): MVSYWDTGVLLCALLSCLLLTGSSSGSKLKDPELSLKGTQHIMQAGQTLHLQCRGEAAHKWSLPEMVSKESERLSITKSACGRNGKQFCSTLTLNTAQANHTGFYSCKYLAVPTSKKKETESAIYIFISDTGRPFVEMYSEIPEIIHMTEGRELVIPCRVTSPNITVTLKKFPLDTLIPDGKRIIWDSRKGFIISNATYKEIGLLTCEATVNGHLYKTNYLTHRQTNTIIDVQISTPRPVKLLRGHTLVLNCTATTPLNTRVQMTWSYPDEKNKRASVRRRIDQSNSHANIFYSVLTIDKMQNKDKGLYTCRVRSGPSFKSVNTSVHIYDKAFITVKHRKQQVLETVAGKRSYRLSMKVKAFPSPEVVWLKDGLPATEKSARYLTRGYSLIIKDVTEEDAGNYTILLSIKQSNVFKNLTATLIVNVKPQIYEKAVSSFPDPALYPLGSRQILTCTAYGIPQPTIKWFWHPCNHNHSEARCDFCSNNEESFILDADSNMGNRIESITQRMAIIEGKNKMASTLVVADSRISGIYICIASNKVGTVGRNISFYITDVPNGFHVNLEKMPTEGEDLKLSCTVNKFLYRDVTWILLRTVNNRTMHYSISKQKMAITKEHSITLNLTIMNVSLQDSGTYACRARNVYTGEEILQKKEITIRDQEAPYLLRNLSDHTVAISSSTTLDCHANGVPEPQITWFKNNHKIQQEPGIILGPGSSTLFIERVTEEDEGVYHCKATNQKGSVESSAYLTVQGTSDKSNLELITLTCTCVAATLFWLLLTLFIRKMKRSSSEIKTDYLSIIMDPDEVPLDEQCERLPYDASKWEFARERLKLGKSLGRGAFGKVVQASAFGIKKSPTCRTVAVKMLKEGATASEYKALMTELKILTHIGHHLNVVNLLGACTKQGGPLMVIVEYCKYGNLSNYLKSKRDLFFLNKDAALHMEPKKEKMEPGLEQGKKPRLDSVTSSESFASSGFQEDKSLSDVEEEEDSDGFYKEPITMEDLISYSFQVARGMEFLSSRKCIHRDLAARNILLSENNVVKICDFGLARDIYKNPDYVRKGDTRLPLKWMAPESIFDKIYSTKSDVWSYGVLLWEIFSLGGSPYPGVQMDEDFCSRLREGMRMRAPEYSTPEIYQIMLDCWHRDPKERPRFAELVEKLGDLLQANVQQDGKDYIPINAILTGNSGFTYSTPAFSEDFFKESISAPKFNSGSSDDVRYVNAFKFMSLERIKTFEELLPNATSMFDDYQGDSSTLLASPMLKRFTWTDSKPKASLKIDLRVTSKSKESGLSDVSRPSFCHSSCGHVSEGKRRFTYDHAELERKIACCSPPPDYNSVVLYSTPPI
Sequence of Dual specificity mitogen-activated protein kinase kinase 1 (Homo sapiens) (Q02750 whole entry): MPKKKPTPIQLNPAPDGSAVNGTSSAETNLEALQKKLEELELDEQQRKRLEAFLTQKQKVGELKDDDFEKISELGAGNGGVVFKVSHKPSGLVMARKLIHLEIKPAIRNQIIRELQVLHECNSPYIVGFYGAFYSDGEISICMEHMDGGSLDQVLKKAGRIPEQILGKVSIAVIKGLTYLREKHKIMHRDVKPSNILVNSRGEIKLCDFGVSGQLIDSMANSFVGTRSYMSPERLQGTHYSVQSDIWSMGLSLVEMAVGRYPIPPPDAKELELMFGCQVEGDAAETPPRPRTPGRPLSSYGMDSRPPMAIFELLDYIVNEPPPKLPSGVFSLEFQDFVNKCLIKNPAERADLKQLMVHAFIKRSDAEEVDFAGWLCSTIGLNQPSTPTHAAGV

inhibition [1]	inhibition [3]	inhibition [4]	inhibition [5]	inhibition [6]	inhibition [7]	inhibition [8]	inhibition [9]	SMILES	inhibition [2]
4.09%	-4.23%	-2.52%	2.54%	–	–	–	–	C[C@]1(O)C[C@@H](c2nc(-c3ccc4ccc(-c5ccccc5)nc4c3)c3c(N)nccn32)C1	-6.26%
–	–	–	–	-2.16%	4.12%	-6.3%	-6.12%	C[C@@]1(C(=O)Nc2ccc(F)nc2)CCCN1c1nc(Nc2cc(C3CC3)n[nH]2)c2cccn2n1	–
